Measured values taken from patent US4426390A, “Novel β-lactam compounds, process for producing thereof, and use thereof as medicines” (Sanraku-Ocean Co., Ltd., priority 1980, dated 1984).

What was measured:
Proteus vulgaris GN76 = experiment: Synergistic effect on MIC, microdilution transfer plate technique; type: cell-based
[1] = tested on: Citrobacter Freundii GN346; experiment: as above; type: cell-based

## CC1(C)S[C@@H]2[C@H](NC(=O)[C@H](N)c3ccccc3)C(=O)N2[C@H]1C(=O)O [ABPC, Aminobenzylpenicillin]
Proteus vulgaris GN76; with OA-6129A 1.56 μg/ml
  MIC of ABPC in combination: 3.3 µg/mL
Proteus vulgaris GN76; with OA-6129A 6.25 μg/ml
  MIC of ABPC in combination: 39 µg/mL
Proteus vulgaris GN76; with OA-6129A 25 μg/ml
  MIC of ABPC in combination: 10 µg/mL
Proteus vulgaris GN76; with OA-6129A 50 μg/ml
  MIC of ABPC in combination: < 5 µg/mL
Proteus vulgaris GN76; with OA-6129A […]
  MIC of ABPC in combination: 156 µg/mL
[1]; with OA-6129A 6.25 μg/ml
  MIC of ABPC in combination: 313 µg/mL
[1]; with OA-6129A 25 μg/ml
  MIC of ABPC in combination: < 5 µg/mL
[1]; with OA-6129A 50 μg/ml
  MIC of ABPC in combination: < 5 µg/mL
[1]; with OA-6129A […]
  MIC of ABPC in combination: 625 µg/mL
